Experimental data from US20110014196A1, “Drug Transfer into Living Cells” (priority 2007, published 2011).

What was measured:
Type in all cases: biochemical
[1] = test system: HaloTag protein available from Promega Corporation; assay: Protein trimer formation with HaloTag protein by SDS-PAGE; details: 4 h incubation at rt, coomassie staining
Experimental: To a solution of N-tris[(2-carboxyethoxy)methyl]methyl nile red-oxyacetamide (86) (6 mg, 0.0083 mmol) and 18-chloro-3,6,9,12-tetraoxaoctadecan-1-amine (10 mg, 0.029 mmol, 3.5 eq) in DMF (1 mL) are successively added pyridine (5 μL, 0.058 mmol, 7 eq), HOBT (1 M in NMP, 8.3 μL, 0.0083 mmol, 1 eq) and EDC (6 mg, 0.029 mmol, 3.5 eq) at rt. The resulting mixture is stirred overnight. The solvent is evaporated under vacuum and compound (100) isolated by reversed phase HPLC on a C18 column using a linear gradient of water:acetonitrile (from 95:5 to 20:80 in 20 min, 0.08% TFA). The structural ability of compound (100) to trigger the formation of a protein trimer is confirmed by in vitro experiments using the fusion protein H2. 10 μL of a 70 μM solution of HaloTag protein available from Promega Corporation and 1.8 μL of a 230 μM solution of compound (100) is added to 3.2 μL of a solution of 50 mM Tris-HCl pH 7.5; 100 mM NaCl; 0.1% Tween20; 1 mM DTT. Following a 4 h incubation at rt, 15 μL of a solution of 100 mM Tris-HCl pH 6.8; 2% SDS; 35% glycerol; 10 mM EDTA; 20 mM DTT is added. Then the mixture is boiled for 5 min at 95° C. After cooling to rt, 25 μL of this solution is loaded on a 4-20% linear gradient SDS-PAGE gel. After electrophoresis, the proteins are coomassie stained in gel to visualize protein trimer.

[2] = test system: fusion protein CLIP-FRB and the fusion protein SNAP-FKBP; assay: Protein dimer formation with CLIP-FRB and SNAP-FKBP by SDS-PAGE; details: overnight incubation at 4° C., coomassie staining
Experimental: The structural ability of compound (104) and (105) to trigger the formation of a protein dimer is confirmed by in vitro experiments using the fusion protein CLIP-FRB and the fusion protein SNAP-FKBP. 1 μL of a 591 μM solution of FKBP protein fused to a variant of AGT available from Covalys as SNAP26, 10 μL of a 52.9 μM solution of FRB protein fused to a variant of AGT available from Covalys as CLIP and 1 μL of a 62.5 μM solution of mixture of compounds (104) and (105) is added to 3 μL of a solution of 50 mM Tris-HCl pH 7.5; 100 mM NaCl; 0.1% Tween20; 1 mM DTT. Following overnight incubation at 4° C., 15 μL of a solution of 100 mM Tris-HCl pH 6.8; 2% SDS; 35% glycerol; 10 mM EDTA; 20 mM DTT is added. Then the mixture is boiled for 5 min at 95° C. After cooling to rt, 25 μL of this solution is loaded on a 4-20% linear gradient SDS-PAGE gel. After electrophoresis, the proteins are coomassie stained in gel to visualize protein dimer.

fusion protein CLIP-FRB = assay: Protein trimer formation with CLIP-FRB by SDS-PAGE; details: 4 h incubation at rt, coomassie staining
Experimental: To a solution of N-tris[(2-carboxyethoxy)methyl]methyl nile red-oxyacetamide (86) (10 mg, 0.014 mmol) and BC-PEG12-NH2 (98) (41 mg, 0.049 mmol, 3.5 eq) in DMF (1 mL) are successively added DIPEA (8.1 μL, 0.049 mmol, 3.5 eq), HOBT (1 M in NMP, 14 μL, 0.014 mmol, 1 eq) and EDC (10 mg, 0.049 mmol, 3.5 eq) at rt. The resulting mixture is stirred overnight. The solvent is evaporated under vacuum and compound (99) isolated by reversed phase HPLC on a C18 column using a linear gradient of water:acetonitrile (from 95:5 to 20:80 in 20 min, 0.08% TFA). The structural ability of compound (99) to trigger the formation of a protein trimer is confirmed by in vitro experiments using the fusion protein CLIP-FRB. 20 μL of a 52.9 μM solution of FRB protein fused to a variant of AGT available from Covalys under the trade name CLIP and 2 μL of a 100 μM solution of compound (99) is added to 3 μL of a solution of 50 mM Iris-HCl pH 7.5; 100 mM NaCl; 0.1% Tween20; 1 mM DTT. Following a 4 h incubation at rt, 15 μL of a solution of 100 mM Tris-HCl pH 6.8; 2% SDS; 35% glycerol; 10 mM EDTA; 20 mM DTT is added. Then the mixture is boiled for 5 min at 95° C. After cooling to rt, 25 μL of this solution is loaded on a 4-20% linear gradient SDS-PAGE gel. After electrophoresis, the proteins are coomassie stained in gel to visualize protein trimer.

[3] = test system: FKBP protein fused to a variant of AGT available from Covalys as SNAP26 (SNAP-FKBP); assay: Reactivity with FKBP-AGT fusion protein: protein trimer formation by SDS-PAGE and coomassie staining; details: 4 h incubation at rt; SDS-PAGE, coomassie staining
Experimental: 1 μL of a 591 μM solution of FKBP protein fused to a variant of AGT available from Covalys as SNAP26 and 1 μL of a 100 μM solution of compound (89), (90), (91), (92) or (96) are added to 8 μL of a solution of 50 mM Tris-HCl pH 7.5; 100 mM NaCl; 0.1% Tween20; 1 mM DTT. Following a 4 h incubation at rt, 15 μL of a solution of 100 mM Tris-HCl pH 6.8; 2% SDS; 35% glycerol; 10 mM EDTA; 20 mM DTT is added. The mixture is boiled for 5 min at 95° C. After cooling to rt, 25 μL of this solution is loaded on a 4-20% linear gradient SDS-PAGE gel. After electrophoresis, the proteins are coomassie stained in gel to visualize protein trimer.

FKBP protein fused to a variant of AGT available from Covalys as SNAP26 (SNAP-FKBP), sequence (P16455 1-182 C62A/K125A/A127T/R128A/G131K/G132T/M134L/R135S/C150S/N157G/S159E limits assumed): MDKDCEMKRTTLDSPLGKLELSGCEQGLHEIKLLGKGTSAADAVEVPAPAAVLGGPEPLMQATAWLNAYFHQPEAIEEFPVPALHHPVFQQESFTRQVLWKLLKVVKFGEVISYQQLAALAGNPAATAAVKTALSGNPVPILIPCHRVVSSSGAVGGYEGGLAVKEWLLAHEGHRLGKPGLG
fusion protein CLIP-FRB, sequence (P16455 1-182 with the stated changes limits assumed): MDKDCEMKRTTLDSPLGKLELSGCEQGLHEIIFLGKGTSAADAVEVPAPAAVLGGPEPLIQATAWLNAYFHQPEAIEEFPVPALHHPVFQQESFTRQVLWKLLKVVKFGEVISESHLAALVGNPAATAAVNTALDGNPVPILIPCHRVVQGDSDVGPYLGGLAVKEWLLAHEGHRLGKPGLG

Row | Compound | structural ability to trigger the formation of a protein trimer [3] | other results
1 | CCN(CC)c1ccc2nc3c4cc(OCC(=O)NC(COCCC(=O)NCCOCCOCCOCCOCCCCCCCl)(COCCC(=O)NCCOCCOCCOCCOCCCCCCCl)COCCC(=O)NCCOCCOCCOCCOCCCCCCCl)ccc4c(=O)cc-3oc2c1 [Compound 100, N-Tris-{[2-(halo-PEG4-NH-carbonyl)ethoxyl]methyl}methyl nile red-oxyacetamide] |  | structural ability to trigger the formation of a protein trimer [1]: confirmed
2 | CN(C)c1ccc2c(-c3ccc(C(=O)NC(CCC(=O)NCc4ccc(COc5nc(N)nc6[nH]cnc56)cc4)C(=O)NCc4ccc(COc5nccc(N)n5)cc4)cc3C(=O)[O-])c3ccc(N(C)C)cc3[o+]c2c1 (centres unmarked) [Compound 104, N5-{4-[(2-amino-9H-purin-6-yloxy)methyl]benzyl}-N1-{4-[(4-aminopyrimidin-2-yloxy)methyl]benzyl}-2-tetramethylrhodamine-5-carboxamido-pentanediamide] |  | structural ability to trigger the formation of a protein dimer [2]: confirmed
3 | N-Tris-{[2-(BC-PEG12-NH-carbonyl)ethoxyl]methyl}methyl nile red-oxyacetamide [Compound 99] |  | structural ability to trigger the formation of a protein trimer (fusion protein CLIP-FRB): confirmed
4 | N-Tris-{[2-(BG-PEG12-NH-carbonyl)ethoxy]methyl}methyl 3-[2-(2-maleimidoethyl)disulfanyl]propanoylamide [Compound 96] | confirmed | 
5 | N-Tris-{[2-(BG-PEG12-NH-carbonyl)ethoxy]methyl}methyl 5-maleimido-pentanecarboxamide [Compound 92] | confirmed | 
6 | N-Tris-{[2-(BG-PEG12-NH-carbonyl)ethoxy]methyl}methyl 7-(diethylamino)-coumarin-3-carboxamide [Compound 89] | confirmed | 
7 | N-Tris-{[2-(BG-PEG12-NH-carbonyl)ethoxy]methyl}methyl ATTO-495-carboxamide [Compound 90] | confirmed | 
8 | N-Tris-{[2-(BG-PEG12-NH-carbonyl)ethoxy]methyl}methyl nile red-oxyacetamide [Compound 91] | confirmed | 
